{"source": "patent US11066412B2", "about": "“Substituted pyrrolo[2,1-a]phthalazines and benzo[g]pyrrolo[2,1-a]phthalazines for the treatment of cancer” (Academia Sinica, priority 2017, dated 2021)", "tested_on": "SCLC H211 xenografts", "assay": "tumor growth in xenograft-bearing nude mice, combination with cisplatin", "assay_type": "in vivo", "settings": "co-administration of BO-2768 (20 mg/kg, 5 days + 1 day rest, two cycles) and cisplatin (2 or 4 mg/kg every 4 days ×3); FIG. 14, panel A", "protocol": "Athymic nude mice bearing the nu/nu gene were obtained from the National Laboratory Animal Center (Taipei, Taiwan). Male nude mice (6 weeks or older weighing 20-24 g or more) were used for all human tumor xenografts. The tested compounds were intravenously administered through tail vein. Tumor volume was determined by measuring the length x width x height (or width) with calipers. The vehicle used for the tested compounds was normal saline (0.9% NaCl isotonic solution). For tumor-bearing nude mice during the course of the experiment, the % body weight changes refer to: (the total weight on reading day/the total weight on day treatment started)×100.\nIn this example, the synergistic effect of BO-2768 and cisplatin on the suppression of tumor size and the body weight changes of the test subjects were investigated. To this purpose, an aliquot of H211 cells (5×10^6, 50 μl ) were implanted into nude mice subcutaneously. Then, the test animals were treated with BO-2768 or cisplatin, alone or in combination. BI-2768 (dissolved in 20% Kolliphor® HS 15, 10% Tween 80, 10% PEG400, […], and 40% distilled water) was administered at the dose of 20 mg/kg in […] for 5 consecutive days, then rest for one day; and the cycle was repeated once (i.e., a total of two cycles). Cisplatin was given at the dose of 2 or 4 mg/kg once every 4 days, for 3 times. Results are depicted in FIG. 14."}
{"smiles": "Cc1c(CO)c(CO)c2c3cc4ccccc4cc3c(N(C)C)nn12", "note": "[BO-2768, (6-(Dimethylamino)-3-methylbenzo[g]pyrrolo[2,1-α]phthalazine-1,2-diyl)dimethanol]", "values": [{"measurement": "tumor size, combination effect", "result": "synergistic reduction in the tumor size"}]}
